# Results published in paper PMC4742142, “Identification of novel, in vivo active Chk1 inhibitors utilizing structure guided drug design” (Oncotarget, 2015).
# Where two headings read alike, the source gives them in different places.
# Experiments:
# [1] = test system: pH2AX (S139); assay: pH2AX ELISA in HT29 cells with gemcitabine; format: cell-based; conditions: Homo sapiens, HT-29, 50 nM gemcitabine, 24 hours, read-out: Gem pH2AX (S139) EC50
# Protocol: 1 × 10^4 HT29 cells were seeded per well of a 96 well plate and treated with a combination of 50 nM gemcitabine plus increasing concentrations of V158411 for 24 hours. Following fixation with methanol, pH2AX was detected with a mouse monoclonal antibody (JBW301, Millipore) and a europium-labeled anti-mouse secondary antibody.
# [2] = target: Chk2 (Homo sapiens, UniProt O96017); assay: In vitro kinase assay, Chk2; format: biochemical; conditions: full length Chk2
# Sequence of Chk2 (O96017 whole entry): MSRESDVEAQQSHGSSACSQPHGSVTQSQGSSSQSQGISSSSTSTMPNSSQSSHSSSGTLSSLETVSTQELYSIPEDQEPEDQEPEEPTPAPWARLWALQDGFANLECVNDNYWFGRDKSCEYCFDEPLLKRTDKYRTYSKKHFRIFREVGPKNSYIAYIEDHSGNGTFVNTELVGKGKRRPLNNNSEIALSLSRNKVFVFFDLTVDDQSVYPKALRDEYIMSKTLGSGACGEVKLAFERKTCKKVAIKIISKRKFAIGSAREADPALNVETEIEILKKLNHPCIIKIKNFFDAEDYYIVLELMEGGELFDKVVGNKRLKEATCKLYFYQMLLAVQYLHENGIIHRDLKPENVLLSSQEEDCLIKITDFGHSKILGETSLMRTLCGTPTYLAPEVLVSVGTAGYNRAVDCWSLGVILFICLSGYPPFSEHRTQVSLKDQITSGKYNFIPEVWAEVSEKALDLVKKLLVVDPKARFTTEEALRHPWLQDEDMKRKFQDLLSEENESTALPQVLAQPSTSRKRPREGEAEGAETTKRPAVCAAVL
# Protocol: Kinase assays were performed as previously described.
# [3] = target: T1, Chk1 (Homo sapiens, UniProt O14757); assay: Wide panel binding assay (386 kinases); conditions: Chk1, 50 nM
# T1 sequence (O14757 1-476): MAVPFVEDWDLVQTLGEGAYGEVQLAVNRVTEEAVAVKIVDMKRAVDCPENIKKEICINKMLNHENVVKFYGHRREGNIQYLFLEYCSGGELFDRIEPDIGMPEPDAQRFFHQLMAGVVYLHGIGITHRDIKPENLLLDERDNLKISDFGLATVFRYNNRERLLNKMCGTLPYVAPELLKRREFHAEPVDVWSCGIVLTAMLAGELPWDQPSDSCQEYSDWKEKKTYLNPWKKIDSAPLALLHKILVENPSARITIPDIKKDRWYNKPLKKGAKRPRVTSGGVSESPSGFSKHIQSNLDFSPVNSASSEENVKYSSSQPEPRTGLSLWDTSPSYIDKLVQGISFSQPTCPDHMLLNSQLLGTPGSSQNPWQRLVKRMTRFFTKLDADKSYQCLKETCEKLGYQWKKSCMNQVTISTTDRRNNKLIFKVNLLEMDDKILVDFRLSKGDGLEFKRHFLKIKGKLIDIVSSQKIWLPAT
# Protocol: (§1) Selectivity against the cell cycle kinase CDK1 is considered critical for the pharmacological activity of Chk1 inhibitors as inhibiting it would prevent the G2 checkpoint abrogation and entry into mitosis; critical for the potentiation of cytotoxic DNA damage. Against a panel of 386 kinases in a wide panel binding assay, V158411 inhibited the activity of one kinase (Chk1) in the range 99-100%, three kinases 90-99% and 19 kinases 65-90% at 50 nM (Supplementary Table 1).
# [4] = test system: HT29 cells; assay: Clonogenicity (colony formation) assay; format: cell-based, human; conditions: HT29, 300 nM V158411 with gemcitabine, camptothecin or SN38
# Protocol: HT29 cells were plated at a density of 300 cells per well in 6-well plates and allowed to attach for 4 hours. Cells were treated with gemcitabine, camptothecin or SN38 in the absence or presence of V158411 for 24 hours followed by drug free media for a further 14 days. Resulting colonies were stained and fixed with 0.1% crystal violet in 10% formaldehyde.
# [5] = test system: HT29 cells; assay: Checkpoint abrogation assay (gemcitabine, nocodazole, pHH3 (S10)); format: cell-based, human
# Protocol: The ability of V158411 to abrogate gemcitabine induced S-phase arrest was further characterized using a checkpoint abrogation assay. Cells were pre-treated with gemcitabine for 16 hours followed by increasing concentrations of V158411 in the presence of nocodazole, an inhibitor of microtubule polymerization, for a further 24 hours. Mitotic cells were then scored for pHH3 (S10) expression. p53 defective HT29 cells exposed to gemcitabine, which induces arrest in S-phase, were negative for pHH3 (S10) staining. V158411 treatment abrogated the gemcitabine induced S-phase arrest allowing cells to progress through into mitosis where they were trapped by nocodazole. These cells stained positive for pHH3 and are indicative of checkpoint abrogation.
# [6] = Plasma and tumor pharmacokinetics in HT29 tumor bearing mice; format: in vivo; conditions: mouse, HT29 tumor bearing mice, 30 mg/kg IV
# Protocol: Dosing of animals and collection of samples was conducted by Quotient Bioresearch (Rushden) Ltd, UK. V158411 was administered by intravenous (IV) bolus injection to female Balb/C mice, male Sprague-Dawley rats or male beagle dogs. Plasma samples were prepared by protein precipitation with acetonitrile containing internal standard (IS; dextromethorphan, 0.5 μg/mL); the analysis plate was centrifuged at 3,000 rpm for 10 minutes at 4°C. […] The ratios of analyte against IS peak areas were calculated, and concentrations derived from calibration lines generated by Quanlynx (Waters Ltd.).
# Pharmacokinetic parameters were calculated using the software package WinNonLin (Pharsight Corp.). Data was analyzed using noncompartmental analysis and fitted using plasma concentration versus time curves.
# [7] = test system: panel of 386 kinases; assay: Wide panel binding assay, whole panel; conditions: at pharmacologically relevant doses
# Protocol: as §1
# [8] = test system: panel of human cancer cell lines; assay: Single agent cytotoxicity, whole panel; format: cell-based; conditions: range over the cell lines, read-out: GI50s across the panel
# Protocol: All cells were obtained from the American Type Culture Collection and maintained as low passage stocks. Cells were routinely cultured in DMEM or RPMI1640 containing 10% FCS and 1% penicillin / streptomycin (Invitrogen). The cytotoxicity of V158411 was determined following exposure of cells in 96 well plates using a 10-point titration for 72 hours. Cell proliferation was determined using sulphorhodamine B staining following protein precipitation with 10% TCA.
# [9] = target: T1, Chk1; assay: Etoposide induced Chk1 autophosphorylation (pS296) in HT29 cells, immunoblotting; format: cell-based
# Protocol: Figure 3 Effect of V158411 on etoposide, gemcitabine and camptothecin induced DNA damage checkpoint and cell cycle proteins A. HT29 cells were exposed to increasing concentrations of V158411 for 1 hour followed by 25 μM etoposide for a further 5 hours. Auto-phosphorylation of Chk1 and Chk2 was determined by immunoblotting. B. HT29 cells were treated with gemcitabine (25 nM) or camptothecin (50 nM) for 16 hours followed by increasing doses of V158411 for a further 24 hours. C. HT29 cells were treated with 500 nM V158411 for 1 hour, media removed and replaced with drug free. Cells were harvested at the indicated time points post the removal of V158411. D. HT29 cells were treated with 0 or 100 nM camptothecin for 16 hours followed by V158411 for 2 - 24 hours. After the indicated time, media was removed and replaced with drug free media. All cells were harvested 24 hours after the initial addition of V158411. Protein expression was characterized by immunoblotting as described in materials and methods.
# Anti-pHistone H3 (S10) was obtained from Millipore; pCdc2 (Y15), pCdc25C (S216), Chk1, pChk1 (S317), pChk2 (S516), Cyclin B1, pH2AX (S139), GAPDH and Actin from Cell Signaling Technologies and pChk1 (S296) from Abcam. Treated and untreated cells were washed once with PBS and lysed in RIPA buffer containing protease and phosphatase inhibitor cocktail (Roche). Protein concentration was determined using BCA kit (Pierce). Equal amounts of lysate were separated by SDS-PAGE and western blot analysis conducted using the antibodies indicated above.
structure (smiles),measurement,setting,value
CN(C)CC(C)(C)COc1ccc2[nH]c(-c3cc(NC(=O)c4cnn(Cc5ccccc5)c4)c[nH]c3=O)cc2c1 [V158411],EC50,[1],51 nM
same,IC50,[2],4.5 nM
same,Percent inhibition at 50 nM,[3]; 0.05 µM,99-100%
same,inhibition at 0.05 µM,[3]; read-out: Percent inhibition at 50 nM,100%
same,effect on fraction of cells killed in colony formation,[4],significantly increased the fraction of cells killed by all three agents
same,concentration of maximal abrogation of gemcitabine induced S-phase arrest,[5],around 300 nM
same,EC50,"[5]; Homo sapiens, HT-29, gemcitabine 16 hours then compound plus nocodazole 24 hours, read-out: Gem pHH3 (S10) MI EC50 (abrogation of gemcitabine induced S-phase arrest)",79 nM
same,clearance,[6]; plasma,24 mL/min/kg
same,half-life,"[6]; plasma, read-out: half-life (plasma) (converted)",4.1 h
same,Vd,"[6]; plasma, read-out: volume of distribution",2.5 L/kg
same,half-life,[6]; read-out: elimination half-life in the tumor (converted),22 h
same,Kp,"[6]; tumor versus plasma, read-out: tissue/plasma AUC0-24h ratio",4.7
same,selectivity for Chk1 over the majority of the kinases in the panel,[7],> 100 fold
same,IC50,[8],500 to 9500 nM
same,IC50 for Chk1 autophosphorylation and EC50 for H2AX phosphorylation lower than single agent GI50,[9],around 10 fold
same,IC50,[9]; 1 hour compound then 25 μM etoposide 5 hours,48 nM
same,cellular selectivity for Chk1 versus Chk2,[9]; etoposide,19 fold
